Read-outs that look alike come from different tables or passages of the source.
Tests used:
Sprague Dawley (SD) rats [1] = assay: Urinalysis, 4-week subacute toxicity study; format: in vivo, rat
Procedure: Urine samples were directly collected from the metabolic cage at the end of dosing phase (Day 26) and at the end of recovery phase (Recovery Day 28), respectively. Urinalysis parameters in Table 1 were evaluated using CLINITEK Atlas automatic urine analyzer (Germany).

Sprague Dawley (SD) rats [2] = assay: Histopathology, 4-week subacute toxicity study; format: in vivo, rat; settings: for Epididymis: Cell debris, lumen, Grade: 1 (minimal), animals / Epididymis: Cell debris, lumen, Grade: 3 (moderate), animals / Epididymis: Cell debris, lumen, Total Incidence / Epididymis: Sperm, decreased, lumen, Grade: 4 (marked), animals / Epididymis: Sperm, decreased, lumen, Total Incidence / Testis: Degeneration, tubule, Grade: 2 (mild), animals / Testis: Degeneration, tubule, Total Incidence: M
Procedure: The tissues in the Table 2 were preserved in 10% neutral phosphate-buffered formalin. Bilateral eyes, optic nerves, testes, epididymides and Harderian glands were fixed in modified Davidson’s solution. For all the above tissues in all groups, sampling, paraffin embedding, sectioning and hematoxylin-eosin staining was performed, followed by histopathology examination microscopically with light microscopy.

rats = assay: Spontaneous withdrawal test in rats; format: in vivo, rat; settings: iv 0.3 to 1.8 mg/kg/day for 30 consecutive days; data not shown
Procedure: However, we have conducted the spontaneous withdrawal test in rats in 2019 at WCFP (data not shown in this manuscript). The rats were intravenously injected with LPM3480392 injection from 0.3 to 1.8 mg/kg/day for 30 consecutive days. […] There were no apparent abnormalities in body weights of female rats in LPM3480392 injection groups during dosing and recovery phases. The effects of LPM3480392 on body weight in males or females in the spontaneous withdrawal test are similar to those in the subacute toxicity study in rats.

µ-opioid receptor (MOR) [3] = test system: µ-opioid receptor (MOR); parameters: method as in Yang et al., 2022; settings: ref Yang et al., 2022, cited from earlier work
µ-opioid receptor (MOR) [4] = test system: µ-opioid receptor (MOR); parameters: method as in Yang et al., 2022; settings: ref Yang et al., 2022, cited from earlier work; remark: listed apart in the source
[5] = 0.6 mg/kg/day, End of dosing phase, N 5
[6] = 0.6 mg/kg/day, End of recovery phase, N 5
[7] = 1.2 mg/kg/day, End of dosing phase, N 5
[8] = 1.2 mg/kg/day, End of recovery phase, N 5
[9] = 2.4 mg/kg/day, End of dosing phase, N 4
[10] = 2.4 mg/kg/day, End of dosing phase, N 5
[11] = 2.4 mg/kg/day, End of recovery phase, N 4
[12] = 2.4 mg/kg/day, End of recovery phase, N 5
[13] = 0.6 mg/kg/day, end of dosing phase, 10 examined
[14] = 1.2 mg/kg/day, end of dosing phase, 10 examined
[15] = 2.4 mg/kg/day, end of dosing phase, 9 examined

Fc1ccc([C@]2(CCNCc3cccc(Cl)c3)CCO[C@]3(CCOC3)C2)nc1 [LPM3480392]
> 30000 nM: EC50 (µ-opioid receptor (MOR) [4]; read-out: EC50, β-arrestin-2 recruitment activity)
0: pH of females: animals with grade 6.0 (Sprague Dawley (SD) rats [1]; [6]) | pH of females: animals with grade 6.5 (Sprague Dawley (SD) rats [1]; [6]) | pH of females: animals with grade 7.0 (Sprague Dawley (SD) rats [1]; [6]) | pH of females: animals with grade 6.5 (Sprague Dawley (SD) rats [1]; [8]) | pH of females: animals with grade 7.0 (Sprague Dawley (SD) rats [1]; [9]) | KET (mmol/L) of males: animals with grade 1.5 (Sprague Dawley (SD) rats [1]; [10]) | KET (mmol/L) of males: animals with grade 3.9 (Sprague Dawley (SD) rats [1]; [10]) | pH of females: animals with grade 6.0 (Sprague Dawley (SD) rats [1]; [11]) | pH of females: animals with grade 7.5 (Sprague Dawley (SD) rats [1]; [11]) | pH of females: animals with grade 8.0 (Sprague Dawley (SD) rats [1]; [11]) | KET (mmol/L) of males: animals with grade 3.9 (Sprague Dawley (SD) rats [1]; [12]) | NIT of males: animals with grade + (Sprague Dawley (SD) rats [1]; [12]) | Epididymis: Cell debris, lumen, Grade: 1 (minimal), animals (Sprague Dawley (SD) rats [2]; [13]) | Epididymis: Cell debris, lumen, Grade: 3 (moderate), animals (Sprague Dawley (SD) rats [2]; [13]) | Epididymis: Cell debris, lumen, Total Incidence (Sprague Dawley (SD) rats [2]; [13]) | Epididymis: Sperm, decreased, lumen, Grade: 4 (marked), animals (Sprague Dawley (SD) rats [2]; [13]) | Epididymis: Sperm, decreased, lumen, Total Incidence (Sprague Dawley (SD) rats [2]; [13]) | Testis: Degeneration, tubule, Grade: 2 (mild), animals (Sprague Dawley (SD) rats [2]; [13]) | Testis: Degeneration, tubule, Total Incidence (Sprague Dawley (SD) rats [2]; [13]) | Epididymis: Cell debris, lumen, Grade: 1 (minimal), animals (Sprague Dawley (SD) rats [2]; [14]) | Epididymis: Cell debris, lumen, Grade: 3 (moderate), animals (Sprague Dawley (SD) rats [2]; [14]) | Epididymis: Cell debris, lumen, Total Incidence (Sprague Dawley (SD) rats [2]; [14]) | Epididymis: Sperm, decreased, lumen, Grade: 4 (marked), animals (Sprague Dawley (SD) rats [2]; [14]) | Epididymis: Sperm, decreased, lumen, Total Incidence (Sprague Dawley (SD) rats [2]; [14]) | Testis: Degeneration, tubule, Grade: 2 (mild), animals (Sprague Dawley (SD) rats [2]; [14]) | Testis: Degeneration, tubule, Total Incidence (Sprague Dawley (SD) rats [2]; [14])
no microscopic changes: Microscopic changes in brain, heart, liver, spleen, lungs, kidney, adrenal gland, thymus, lymph node, gastrointestinal tract (Sprague Dawley (SD) rats [2]; end of dosing phase and recovery phase)
0.35 nM: EC50 (µ-opioid receptor (MOR) [3]; read-out: EC50, in vitro biased agonism)
4: pH of females: animals with grade 7.5 (Sprague Dawley (SD) rats [1]; [6]) | NIT of males: animals with grade — (Sprague Dawley (SD) rats [1]; [7]) | NIT of males: animals with grade — (Sprague Dawley (SD) rats [1]; [8]) | NIT of males: animals with grade — (Sprague Dawley (SD) rats [1]; [10]) | KET (mmol/L) of males: animals with grade — (Sprague Dawley (SD) rats [1]; [12])
1: KET (mmol/L) of males: animals with grade 3.9 (Sprague Dawley (SD) rats [1]; [5]) | KET (mmol/L) of males: animals with grade — (Sprague Dawley (SD) rats [1]; [5]) | pH of females: animals with grade 7.0 (Sprague Dawley (SD) rats [1]; [5]) | pH of females: animals with grade 8.5 (Sprague Dawley (SD) rats [1]; [5]) | KET (mmol/L) of males: animals with grade 3.9 (Sprague Dawley (SD) rats [1]; [6]) | pH of females: animals with grade 8.0 (Sprague Dawley (SD) rats [1]; [6]) | KET (mmol/L) of males: animals with grade 3.9 (Sprague Dawley (SD) rats [1]; [7]) | KET (mmol/L) of males: animals with grade — (Sprague Dawley (SD) rats [1]; [7]) | NIT of males: animals with grade + (Sprague Dawley (SD) rats [1]; [7]) | pH of females: animals with grade 7.0 (Sprague Dawley (SD) rats [1]; [7]) | pH of females: animals with grade 8.5 (Sprague Dawley (SD) rats [1]; [7]) | KET (mmol/L) of males: animals with grade 3.9 (Sprague Dawley (SD) rats [1]; [8]) | NIT of males: animals with grade + (Sprague Dawley (SD) rats [1]; [8]) | pH of females: animals with grade 6.0 (Sprague Dawley (SD) rats [1]; [8]) | pH of females: animals with grade 7.5 (Sprague Dawley (SD) rats [1]; [8]) | pH of females: animals with grade 8.0 (Sprague Dawley (SD) rats [1]; [8]) | pH of females: animals with grade 7.5 (Sprague Dawley (SD) rats [1]; [9]) | NIT of males: animals with grade + (Sprague Dawley (SD) rats [1]; [10]) | KET (mmol/L) of males: animals with grade 1.5 (Sprague Dawley (SD) rats [1]; [12]) | Epididymis: Cell debris, lumen, Grade: 1 (minimal), animals (Sprague Dawley (SD) rats [2]; [15]) | Epididymis: Cell debris, lumen, Grade: 3 (moderate), animals (Sprague Dawley (SD) rats [2]; [15]) | Epididymis: Sperm, decreased, lumen, Grade: 4 (marked), animals (Sprague Dawley (SD) rats [2]; [15]) | Epididymis: Sperm, decreased, lumen, Total Incidence (Sprague Dawley (SD) rats [2]; [15]) | Testis: Degeneration, tubule, Grade: 2 (mild), animals (Sprague Dawley (SD) rats [2]; [15]) | Testis: Degeneration, tubule, Total Incidence (Sprague Dawley (SD) rats [2]; [15])
2: NIT of males: animals with grade + (Sprague Dawley (SD) rats [1]; [5]) | KET (mmol/L) of males: animals with grade 1.5 (Sprague Dawley (SD) rats [1]; [6]) | KET (mmol/L) of males: animals with grade — (Sprague Dawley (SD) rats [1]; [6]) | NIT of males: animals with grade — (Sprague Dawley (SD) rats [1]; [6]) | KET (mmol/L) of males: animals with grade 1.5 (Sprague Dawley (SD) rats [1]; [8]) | KET (mmol/L) of males: animals with grade — (Sprague Dawley (SD) rats [1]; [8]) | pH of females: animals with grade 7.0 (Sprague Dawley (SD) rats [1]; [8]) | pH of females: animals with grade 6.5 (Sprague Dawley (SD) rats [1]; [11]) | pH of females: animals with grade 7.0 (Sprague Dawley (SD) rats [1]; [11]) | Epididymis: Cell debris, lumen, Total Incidence (Sprague Dawley (SD) rats [2]; [15])
91.4%: Emax, in vitro biased agonism (µ-opioid receptor (MOR) [3])
1/9: Mild tubular degeneration of the testis, incidence (Sprague Dawley (SD) rats [2]; males, 2.4 mg/kg/day, end of dosing phase)
1.6%: Emax, β-arrestin-2 recruitment activity (µ-opioid receptor (MOR) [4])
5: KET (mmol/L) of males: animals with grade — (Sprague Dawley (SD) rats [1]; [10]) | NIT of males: animals with grade — (Sprague Dawley (SD) rats [1]; [12])
6: Withdrawal behaviours reversed to normal, Recovery day (rats)
3: KET (mmol/L) of males: animals with grade 1.5 (Sprague Dawley (SD) rats [1]; [5]) | NIT of males: animals with grade — (Sprague Dawley (SD) rats [1]; [5]) | pH of females: animals with grade 7.5 (Sprague Dawley (SD) rats [1]; [5]) | NIT of males: animals with grade + (Sprague Dawley (SD) rats [1]; [6]) | KET (mmol/L) of males: animals with grade 1.5 (Sprague Dawley (SD) rats [1]; [7]) | pH of females: animals with grade 7.5 (Sprague Dawley (SD) rats [1]; [7]) | pH of females: animals with grade 8.5 (Sprague Dawley (SD) rats [1]; [9])
Physical dependence was induced: Physical dependence after spontaneous withdrawal (rats)

— paper PMC10436550, “Subacute toxicity evaluations of LPM3480392 in rats, a full µ-opioid receptor biased agonist” (Frontiers in Pharmacology, 2023)
